How the values were obtained:
Type in all cases: cell-based
human α2C receptor = target: T1, human α2C receptor (Homo sapiens, UniProt P18825); assay: FLIPR Ca+2 influx assay, α2C
T1 construct: expressed in transfected cells; host or cells: HEK 293
T1 sequence (P18825 1-462): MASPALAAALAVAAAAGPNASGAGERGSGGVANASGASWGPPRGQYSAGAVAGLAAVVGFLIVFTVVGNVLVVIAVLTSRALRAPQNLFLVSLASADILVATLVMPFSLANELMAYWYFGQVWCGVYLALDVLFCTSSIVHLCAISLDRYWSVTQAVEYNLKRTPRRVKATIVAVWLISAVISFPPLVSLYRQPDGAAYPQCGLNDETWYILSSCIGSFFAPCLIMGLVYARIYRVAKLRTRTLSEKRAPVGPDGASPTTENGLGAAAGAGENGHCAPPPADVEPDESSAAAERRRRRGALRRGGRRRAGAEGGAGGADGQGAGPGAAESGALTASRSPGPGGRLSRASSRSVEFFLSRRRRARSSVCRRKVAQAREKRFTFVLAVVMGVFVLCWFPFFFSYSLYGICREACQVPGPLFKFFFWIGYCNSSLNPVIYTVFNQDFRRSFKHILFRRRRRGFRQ
Experimental: (§1) The compounds disclosed herein are agonists of alpha 2B/2C adrenergic receptors. […] This assay is adequate for monitoring the intracellular Ca^2+ mobilization from fluorescent reading to evaluate receptor agonists.
(§2) FLIPR Ca+2 Influx Assay: HEK 293 cells stably expressing the bovine α1A receptor, the rat α1B receptor, the human α2A receptor and the chimeric G protein Gqi5, the human α2C receptor and the chimeric G protein Gqi5 and the mouse α2B receptor and the Gα16 protein were plated in poly-D-lysine coated 384 well plates at 15,000-25,000 cells per well and grown overnight in DMEM supplemented with 10% fetal bovine serum. For FLIPR (fluorometric image plate reader) evaluation, cells were washed 2-4 times with HBSS/HEPES Buffer (1× Hanks Buffered Salt Solution, 20 mM HEPES<pH 7.4) prior to the addition of Fluo-4-AM (4 uM Fluo-4-AM, 0.04% pluronic acid in HBSS/HEPES Buffer), a calcium-sensitive dye. Cells were loaded with Dye for 40 minutes at 30° C., then washed 4-8 times with HBSS/HEPES Buffer to remove excess dye. Cells were preincubated at 37° C. for 3 minutes prior to placement into the FLIPR instrument. The reaction was carried out at 37° C. and was initiated by the addition of the appropriate dilutions of compounds. The transient calcium was captured and the peak height of the calcium curve determined and utilized for calculation of EC50 and efficacy using ActivityBase. Data is stored in the ActivityBase database under the unique identifier “Test Occasion”, which reflects the results of an assay run on a particular date and the individual responsible for the assay. Norepinephrine was the standard full agonist for evaluating alpha1 and alpha2 receptor activity.

human α2A receptor = target: T2, human α2A receptor (Homo sapiens, UniProt P08913); assay: FLIPR Ca+2 influx assay, α2A
T2 construct: expressed in transfected cells; host or cells: HEK 293
T2 sequence (P08913 1-465): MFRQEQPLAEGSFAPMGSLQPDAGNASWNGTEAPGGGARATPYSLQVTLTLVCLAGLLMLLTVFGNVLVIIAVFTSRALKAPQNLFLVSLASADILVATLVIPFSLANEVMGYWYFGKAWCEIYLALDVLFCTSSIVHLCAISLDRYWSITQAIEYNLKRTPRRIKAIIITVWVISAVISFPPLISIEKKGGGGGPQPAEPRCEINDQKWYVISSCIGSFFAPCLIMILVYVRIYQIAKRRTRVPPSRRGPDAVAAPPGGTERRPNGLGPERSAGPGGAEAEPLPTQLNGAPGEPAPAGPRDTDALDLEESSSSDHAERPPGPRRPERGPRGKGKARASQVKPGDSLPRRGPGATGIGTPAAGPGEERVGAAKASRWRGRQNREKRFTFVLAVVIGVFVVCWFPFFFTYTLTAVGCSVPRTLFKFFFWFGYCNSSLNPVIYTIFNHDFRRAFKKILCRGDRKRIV
Experimental: as §1, §2

bovine α1A receptor = target: T3, bovine α1A receptor (Bos taurus, UniProt P18130); assay: FLIPR Ca+2 influx assay, α1A; conditions: relative efficacy compared to standard full agonist norepinephrine; HEK 293, bovine α1A
T3 construct: expressed in transfected cells; host or cells: HEK 293
T3 sequence (P18130 1-466): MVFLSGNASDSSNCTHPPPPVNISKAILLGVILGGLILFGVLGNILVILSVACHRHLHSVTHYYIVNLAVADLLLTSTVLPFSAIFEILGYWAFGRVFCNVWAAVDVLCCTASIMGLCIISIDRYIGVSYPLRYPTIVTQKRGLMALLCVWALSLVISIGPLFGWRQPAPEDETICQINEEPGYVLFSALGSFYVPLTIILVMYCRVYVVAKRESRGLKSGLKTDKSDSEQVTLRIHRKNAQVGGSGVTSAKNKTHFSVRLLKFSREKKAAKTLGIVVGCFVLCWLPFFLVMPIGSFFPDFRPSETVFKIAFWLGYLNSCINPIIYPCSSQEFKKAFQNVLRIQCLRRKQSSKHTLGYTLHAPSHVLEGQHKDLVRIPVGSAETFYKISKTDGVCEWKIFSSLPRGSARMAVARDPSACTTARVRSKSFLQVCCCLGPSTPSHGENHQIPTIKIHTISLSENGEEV
Experimental: as §1, §2

mouse α2B receptor = target: T4, mouse α2B receptor (Mus musculus, UniProt P30545); assay: FLIPR Ca+2 influx assay, α2B
T4 construct: expressed in transfected cells; host or cells: HEK 293
T4 sequence (P30545 1-453): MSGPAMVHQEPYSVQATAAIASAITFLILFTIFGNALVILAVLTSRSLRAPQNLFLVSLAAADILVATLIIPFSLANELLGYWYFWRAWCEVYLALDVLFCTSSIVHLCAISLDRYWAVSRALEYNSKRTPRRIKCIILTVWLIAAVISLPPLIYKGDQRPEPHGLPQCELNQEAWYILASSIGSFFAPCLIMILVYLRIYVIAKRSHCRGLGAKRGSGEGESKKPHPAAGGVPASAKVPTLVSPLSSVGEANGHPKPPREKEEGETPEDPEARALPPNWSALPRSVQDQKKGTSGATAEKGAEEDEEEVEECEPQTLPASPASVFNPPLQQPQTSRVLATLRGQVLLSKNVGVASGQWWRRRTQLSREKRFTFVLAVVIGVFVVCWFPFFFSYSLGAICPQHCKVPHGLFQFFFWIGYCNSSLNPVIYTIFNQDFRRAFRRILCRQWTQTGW
Experimental: as §1, §2

rat α1B receptor = target: T5, rat α1B receptor (Rattus norvegicus, UniProt P15823); assay: FLIPR Ca+2 influx assay, α1B
T5 construct: expressed in transfected cells; host or cells: HEK 293
T5 sequence (P15823 1-515): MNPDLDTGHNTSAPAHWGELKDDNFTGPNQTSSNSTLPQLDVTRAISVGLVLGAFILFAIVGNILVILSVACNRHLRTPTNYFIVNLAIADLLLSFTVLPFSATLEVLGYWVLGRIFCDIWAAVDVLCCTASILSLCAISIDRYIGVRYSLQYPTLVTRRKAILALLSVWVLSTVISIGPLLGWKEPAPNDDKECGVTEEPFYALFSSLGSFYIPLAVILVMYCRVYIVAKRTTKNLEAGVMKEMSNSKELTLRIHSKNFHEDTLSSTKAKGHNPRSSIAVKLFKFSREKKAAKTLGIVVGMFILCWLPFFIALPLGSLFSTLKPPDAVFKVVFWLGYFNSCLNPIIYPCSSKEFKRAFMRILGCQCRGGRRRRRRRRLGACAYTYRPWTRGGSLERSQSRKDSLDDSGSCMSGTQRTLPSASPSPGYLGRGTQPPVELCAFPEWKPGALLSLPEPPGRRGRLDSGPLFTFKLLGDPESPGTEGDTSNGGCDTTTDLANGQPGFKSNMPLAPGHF
Experimental: as §1, §2

With `CCCN(Cc1ccccn1)C1CCc2cccc(O)c2C1` (stereo not drawn) [drawing 21] the EC50 (human α2C receptor; HEK 293 cells stably expressing human α2C receptor and chimeric G protein Gqi5) was greater than 10 µM, the “Relative efficacy FLIPR α2C” value (human α2C receptor; relative efficacy compared to standard full agonist norepinephrine, HEK 293, human α2C/Gqi5) was 0 and the EC50 (human α2A receptor; HEK 293 cells stably expressing human α2A receptor and chimeric G protein Gqi5) was greater than 10 µM. The “Relative efficacy FLIPR α2A” value (human α2A receptor; relative efficacy compared to standard full agonist norepinephrine, HEK 293, human α2A/Gqi5) was 0, the “Relative efficacy FLIPR α1A” value (bovine α1A receptor) was “ND (0.05)” and the EC50 (mouse α2B receptor; HEK 293 cells stably expressing mouse α2B receptor and Gα16 protein) was 0.033 µM. For the same molecule, the “Relative efficacy FLIPR α2B” value (mouse α2B receptor; relative efficacy compared to standard full agonist norepinephrine, HEK 293, mouse α2B/Gα16) was 0.95, the EC50 (rat α1B receptor; HEK 293 cells stably expressing rat α1B receptor) was greater than 10 µM and the “Relative efficacy FLIPR α1B” value (rat α1B receptor; relative efficacy compared to standard full agonist norepinephrine, HEK 293, rat α1B) was 0.
